In patent US8952024B2, “Herbicidal pyrimidone derivatives” (E I du Pont de Nemours and Company, priority 2009, dated 2015):

Key:
Type in all cases: in vivo
[1] = test system: chickweed (Stellaria media); assay: Test B postemergence plant response
Method in brief: (§1)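 Plants grown in peat/vermiculite medium were sprayed postemergence at 2–18 cm height (1- to 4-leaf stage). After 13–15 days in the greenhouse, response was rated visually against untreated controls on a 0–100 scale (0 no effect, 100 complete control).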

[2] = test system: canarygrass (Phalaris minor); assay: Test B postemergence plant response
Method in brief: as §1

[3] = test system: winter barley (Hordeum vulgare); assay: Test B postemergence plant response
Method in brief: as §1

[4] = test system: corn (Zea mays); assay: Test B pre-/postemergence plant response
Method in brief: (§2)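 Visual injury, 0–100 scale (100 = complete control), rated against controls after 13 to 15 days in greenhouse. Pre-emergence: seeds in loam/sand soil, treated at planting. Post-emergence: 1- to 4-leaf plants (2 to 18 cm) in peat/vermiculite medium. Compounds formulated in non-phytotoxic solvent with surfactant.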

[5] = test system: blackgrass (Alopecurus myosuroides); assay: Test B pre-/postemergence plant response
Method in brief: as §2

[6] = test system: bermudagrass (Cynodon dactylon); assay: Test B pre-/postemergence plant response
Method in brief: as §2

[7] = test system: goosegrass (Eleusine indica); assay: Test B pre-/postemergence plant response
Method in brief: as §2

[8] = test system: wheat (Triticum aestivum); assay: Test B pre-/postemergence plant response
Method in brief: as §2

[9] = test system: ragweed (common ragweed, Ambrosia elatior); assay: Test B pre-/postemergence plant response
Method in brief: as §2

[10] = 62 g ai/ha, postemergence, 0 is no effect, 100 is complete control, 13 to 15 days

What does the source list for `O=C1CCCC(O)=C1C(=O)c1cnc(-c2ccccc2)n(C2CCCCC2)c1=O` [Compound 128, 3-cyclohexyl-5-[(2-hydroxy-6-oxo-1-cyclohexen-1-yl)carbonyl]-2-phenyl-4(3H)-pyrimidinone]?
Chickweed plant response rating (0 to 100 scale) [1, 10]: 90; pest or weed control at 31 g/ha ([1]; Stellaria media, post-emergence, 360 h, Postemergence, 31 g ai/ha, 0 to 100 scale (0 no effect, 100 complete control), read-out: Plant response rating, Chickweed): 90%; pest or weed control at 125 g/ha ([1]; Stellaria media, post-emergence, 360 h, Postemergence, 125 g ai/ha, scale 0 to 100 (0 no effect, 100 complete control), read-out: Plant response rating, Chickweed): 95%; pest or weed control at 250 g/ha ([1]; Stellaria media, post-emergence, 360 h, Postemergence, 250 g ai/ha, scale 0 to 100 (0 no effect, 100 complete control), 13 to 15 days, read-out: Plant response rating, Chickweed): 100%; Canarygrass plant response rating (0 to 100 scale) [2, 10]: 10; pest or weed control at 31 g/ha ([2]; Phalaris minor, post-emergence, 360 h, Postemergence, 31 g ai/ha, 0 to 100 scale (0 no effect, 100 complete control), read-out: Plant response rating, Canarygrass): 10%; pest or weed control at 125 g/ha ([2]; Phalaris minor, post-emergence, 360 h, Postemergence, 125 g ai/ha, scale 0 to 100 (0 no effect, 100 complete control), read-out: Plant response rating, Canarygrass): 30%; pest or weed control at 250 g/ha ([2]; Phalaris minor, post-emergence, 360 h, Postemergence, 250 g ai/ha, scale 0 to 100 (0 no effect, 100 complete control), 13 to 15 days, read-out: Plant response rating, Canarygrass): 30%; Barley plant response rating (0 to 100 scale) [3, 10]: 0; plant injury at 31 g/ha ([3]; Hordeum vulgare, post-emergence, Postemergence, 31 g ai/ha, 0 to 100 scale (0 no effect, 100 complete control), read-out: Plant response rating, Barley): 0%; plant injury at 125 g/ha ([3]; Hordeum vulgare, post-emergence, Postemergence, 125 g ai/ha, scale 0 to 100 (0 no effect, 100 complete control), read-out: Plant response rating, Barley): 0%; plant injury at 250 g/ha ([3]; Hordeum vulgare, post-emergence, Postemergence, 250 g ai/ha, scale 0 to 100 (0 no effect, 100 complete control), 13 to 15 days, read-out: Plant response rating, Barley): 5%; Corn plant response rating (0 to 100 scale) [4, 10]: 50; Corn plant response rating (crop injury, 0 = no effect, 100 = complete kill) at 31 g/ha ([4]; Zea mays, post-emergence, Postemergence, 31 g ai/ha, 0 to 100 scale (0 no effect, 100 complete control)): 40%; Corn plant response rating (crop injury, 0 = no effect, 100 = complete kill) at 125 g/ha ([4]; Zea mays, post-emergence, Postemergence, 125 g ai/ha, scale 0 to 100 (0 no effect, 100 complete control)): 60%; Corn plant response rating (crop injury, 0 = no effect, 100 = complete kill) at 250 g/ha ([4]; Zea mays, post-emergence, Postemergence, 250 g ai/ha, scale 0 to 100 (0 no effect, 100 complete control), 13 to 15 days): 60%; Blackgrass plant response rating (0 to 100 scale) [5, 10]: 5; pest or weed control at 31 g/ha ([5]; Alopecurus myosuroides, post-emergence, 360 h, Postemergence, 31 g ai/ha, 0 to 100 scale (0 no effect, 100 complete control), read-out: Plant response rating, Blackgrass): 5%; pest or weed control at 125 g/ha ([5]; Alopecurus myosuroides, post-emergence, 360 h, Postemergence, 125 g ai/ha, scale 0 to 100 (0 no effect, 100 complete control), read-out: Plant response rating, Blackgrass): 10%; pest or weed control at 250 g/ha ([5]; Alopecurus myosuroides, post-emergence, 360 h, Postemergence, 250 g ai/ha, scale 0 to 100 (0 no effect, 100 complete control), 13 to 15 days, read-out: Plant response rating, Blackgrass): 15%; Bermudagrass plant response rating (0 to 100 scale) [6, 10]: 85; pest or weed control at 31 g/ha ([6]; Cynodon dactylon, post-emergence, Postemergence, 31 g ai/ha, 0 to 100 scale (0 no effect, 100 complete control), read-out: Plant response rating, Bermudagrass): 75%; pest or weed control at 125 g/ha ([6]; Cynodon dactylon, post-emergence, Postemergence, 125 g ai/ha, scale 0 to 100 (0 no effect, 100 complete control), read-out: Plant response rating, Bermudagrass): 98%; pest or weed control at 250 g/ha ([6]; Cynodon dactylon, post-emergence, Postemergence, 250 g ai/ha, scale 0 to 100 (0 no effect, 100 complete control), 13 to 15 days, read-out: Plant response rating, Bermudagrass): 100%; Goosegrass plant response rating (0 to 100 scale) [7, 10]: 95; pest or weed control at 31 g/ha ([7]; Eleusine indica, post-emergence, Postemergence, 31 g ai/ha, 0 to 100 scale (0 no effect, 100 complete control), read-out: Plant response rating, Goosegrass): 90%; pest or weed control at 125 g/ha ([7]; Eleusine indica, post-emergence, Postemergence, 125 g ai/ha, scale 0 to 100 (0 no effect, 100 complete control), read-out: Plant response rating, Goosegrass): 98%; pest or weed control at 250 g/ha ([7]; Eleusine indica, post-emergence, Postemergence, 250 g ai/ha, scale 0 to 100 (0 no effect, 100 complete control), 13 to 15 days, read-out: Plant response rating, Goosegrass): 98%; Wheat plant response rating (0 to 100 scale) [8, 10]: 0; plant injury at 31 g/ha ([8]; Triticum aestivum, post-emergence, Postemergence, 31 g ai/ha, 0 to 100 scale (0 no effect, 100 complete control), read-out: Plant response rating, Wheat): 0%; plant injury at 125 g/ha ([8]; Triticum aestivum, post-emergence, Postemergence, 125 g ai/ha, scale 0 to 100 (0 no effect, 100 complete control), read-out: Plant response rating, Wheat): 0%; plant injury at 250 g/ha ([8]; Triticum aestivum, post-emergence, Postemergence, 250 g ai/ha, scale 0 to 100 (0 no effect, 100 complete control), 13 to 15 days, read-out: Plant response rating, Wheat): 5%; Ragweed plant response rating (0 to 100 scale) [9, 10]: 85; pest or weed control at 31 g/ha ([9]; Ambrosia artemisiifolia, post-emergence, 360 h, Postemergence, 31 g ai/ha, 0 to 100 scale (0 no effect, 100 complete control), read-out: Plant response rating, Ragweed): 85%; pest or weed control at 125 g/ha ([9]; Ambrosia artemisiifolia, post-emergence, 360 h, Postemergence, 125 g ai/ha, scale 0 to 100 (0 no effect, 100 complete control), read-out: Plant response rating, Ragweed): 95%; pest or weed control at 250 g/ha ([9]; Ambrosia artemisiifolia, post-emergence, 360 h, Postemergence, 250 g ai/ha, scale 0 to 100 (0 no effect, 100 complete control), 13 to 15 days, read-out: Plant response rating, Ragweed): 98%
